What was measured:
Assay type in all cases: cell-based
[1] = test system: Pseudomonas aeruginosa biofilms; assay: MBEC assay, overnight Pseudomonas biofilms pretreated overnight with G-fragments and mucin, then antibiotic; details: overnight biofilm, mucin 2.5 g/L
Experimental: (§1) The MBEC method used was adapted from Moskowitz S M, et al (2004) J Clin Microbiol 42:1915-1922. After retrieval from −80° C. storage, bacterial isolates were grown on BA and then grown overnight in TSB. After dilution of the bacterial cultures to 0.5 McFarland in CAMHB with or without mucin (2.5 g/l), 100 μl was transferred to the wells of a flat-bottom 96-well microtiter plate. In Example 3, bacterial cultures were diluted to 0.5 McFarland in CAMHB with mucin (2.5 g/1) and alginate and 100 μl was transferred to the wells of a flat-bottom 96-well microtiter plate
(§2) Plates were then wrapped in parafilm to prevent dehydration and incubated at 37° C. to allow biofilm formation. Incubation times and conditions varied as described below.
(§3) After biofilm formation, planktonic cells and supernatant were removed and each well was then washed with sterile phosphate buffered saline (PBS). After washing, cells were treated with combinations of alginates and/or antibiotics with or without mucin (2.5 g/l) in 100 μl CAMHB. Plates were then wrapped in parafilm and incubated at 37° C. with gentle tilting. Incubation times and conditions varied as described below. The antibiotics and concentration ranges used are shown below.
(§4) Wells were washed with PBS and 100 μl of each concentration of a serial dilution of antibiotic in CAMHB was then added in duplicate. Plates were again wrapped in parafilm and incubated at 37° C. with gentle tilting overnight.
(§5) In all MBEC assays final cell number was assessed as follows. Wells were washed with PBS and biofilms resuspended in 100 μl CAMHB by vigorous pipetting. The optical density at 620 nm (OD620) was measured on a microplate reader (FLUOstar OPTIMA, BMG LABTECH) immediately (0 h) and after incubation at 37° C. at 6 h and 24 h.
(§6) The MBEC value is that concentration of antibiotic that inhibits all growth of the bacteria in the test sample. Bacterial growth is measured by an increase in the absorbance of the sample. Therefore, a reduction in MBEC value is an indication that the sensitivity of the sample to the antibiotic has been increased (i.e. less antibiotic is needed to prevent bacterial growth).
The MBEC assay described above was followed. Biofilms were generated in plates overnight without mucin. Following a PBS wash, the biofilms were incubated with 0, 1, 2 or 6% G-fragments and mucin overnight. After washing with PBS cells were incubated overnight with antibiotics (amikacin or oxytetracycline) and without mucin. […] 6 hr MBEC values for amikacin and oxytetracycline were halved by 1% G fragments and quartered by 2 and 6% G fragments. 24 hr MBEC values for oxytetracycline were halved by all concentrations of G fragments. 24 hr MBEC values for amikacin were reduced although it was not possible to quantify this reduction.

[2] = test system: Pseudomonas aeruginosa biofilms; assay: MBEC assay, Pseudomonas biofilms generated 6 hr with mucin, pretreated overnight with alginate oligomer and mucin, then antibiotic; details: 6 hr biofilm with mucin
Experimental: as §1, §2, §3, §4, §5, §6
The MBEC assay described above was followed with mucin present throughout. Biofilms were generated in the presence of mucin during a 6 hour incubation, washed and incubated with G-fragments and mucin overnight. After washing with PBS the cultures were exposed to antibiotics (amikacin, tobramycin, oxytetracycline or a combination of amikacin and oxytetracycline) without mucin. Results are shown graphically in FIG. 4 and in tabulated form in Tables 6 and 7. […] In fact, 6% G fragments caused a the 6 hr MBEC value for oxytetracycline to drop to ⅛th of the control value. The 24 hr MBEC values for amikacin and tobramycin were halved. […]

[3] = test system: Pseudomonas aeruginosa biofilms; assay: MBEC assay, Pseudomonas biofilms generated overnight in the presence of mucin and G-fragments, then antibiotic
Experimental: as §1, §2, §3, §4, §5, §6
The MBEC assay described above was followed. Biofilms were generated in plates overnight in the presence of mucin and 0, 1, 2 or 6% G fragments. After washing, biofilms were exposed to oxytetracycline (without mucin) overnight. […] 6 hr MBEC values were halved when 2% and 6% G fragments were used.

[4] = exposed to 0 G-fragments overnight
[5] = exposed to 6% G-fragments overnight
[6] = biofilm generated with mucin 2.5 g/L and G-fragments 0
[7] = biofilm generated with mucin 2.5 g/L and G-fragments 1%
[8] = biofilm generated with mucin 2.5 g/L and G-fragments 2%
[9] = biofilm generated with mucin 2.5 g/L and G-fragments 6%

Compound | MBEC value at 6 hours after overnight exposure to antibiotic ([1]; G-fragments 0) [µg/mL] | MBEC value at 24 hours after overnight exposure to antibiotic ([1]; G-fragments 0) [µg/mL] | MBEC value at 6 hours after overnight exposure to antibiotic ([1]; G-fragments 1%) [µg/mL] | MBEC value at 24 hours after overnight exposure to antibiotic ([1]; G-fragments 1%) [µg/mL] | MBEC value at 6 hours after overnight exposure to antibiotic ([1]; G-fragments 2%) [µg/mL] | MBEC value at 24 hours after overnight exposure to antibiotic ([1]; G-fragments 2%) [µg/mL] | MBEC value at 6 hours after overnight exposure to antibiotic ([1]; G-fragments 6%) [µg/mL] | MBEC value at 24 hours after overnight exposure to antibiotic ([1]; G-fragments 6%) [µg/mL] | MBEC value at 6 hr after overnight exposure to antibiotic [2, 4] [µg/mL] | MBEC value at 24 hr after overnight exposure to antibiotic [2, 4] [µg/mL] | MBEC value at 6 hr after overnight exposure to antibiotic [2, 5] [µg/mL] | MBEC value at 24 hr after overnight exposure to antibiotic [2, 5] [µg/mL] | MBEC value at 6 hr after overnight exposure to antibiotic [3, 6] [µg/mL] | MBEC value at 24 hr after overnight exposure to antibiotic [3, 6] [µg/mL] | MBEC value at 6 hr after overnight exposure to antibiotic [3, 7] [µg/mL] | MBEC value at 24 hr after overnight exposure to antibiotic [3, 7] [µg/mL] | MBEC value at 6 hr after overnight exposure to antibiotic [3, 8] [µg/mL] | MBEC value at 24 hr after overnight exposure to antibiotic [3, 8] [µg/mL] | MBEC value at 6 hr after overnight exposure to antibiotic [3, 9] [µg/mL] | MBEC value at 24 hr after overnight exposure to antibiotic [3, 9] [µg/mL]
NCC[C@H](O)C(=O)N[C@@H]1C[C@H](N)[C@@H](O[C@H]2O[C@H](CN)[C@@H](O)[C@H](O)[C@H]2O)[C@H](O)[C@H]1O[C@H]1O[C@H](CO)[C@@H](O)[C@H](N)[C@H]1O [Amikacin, amikacin] | 2048 | >4096 | 1024 | 4096 | 512 | 4096 | 512 | 4096 | 64 | >4096 | 16 | 4096 |  |  |  |  |  |  |  | 
CN(C)[C@@H]1C(O)=C(C(N)=O)C(=O)[C@@]2(O)C(O)=C3C(=O)c4c(O)cccc4[C@@](C)(O)[C@H]3[C@H](O)[C@@H]12 [Oxytetracycline, oxytetracycline] | 512 | 2048 | 256 | 1024 | 128 | 1024 | 128 | 1024 | 512 | 1024 | 64 | 1024 | 512 | 4096 | 512 | 2048 | 256 | 2048 | 256 | 2048
NC[C@H]1O[C@H](O[C@H]2[C@H](O)[C@@H](O[C@H]3O[C@H](CO)[C@@H](O)[C@H](N)[C@H]3O)[C@H](N)C[C@@H]2N)[C@H](N)C[C@@H]1O [Tobramycin, tobramycin] |  |  |  |  |  |  |  |  | 32 | 512 | 8 | 256 |  |  |  |  |  |  |  | 

Source: patent US10624920B2, “Use of alginate oligomers in combating biofilms” (Algipharma AS, priority 2007, dated 2020)
